Assay results reported in US20150164910A1, “ANTIVIRAL COMPOUNDS AND METHODS OF USE” (The Regents of the University of Califonia, priority 2012, published 2015).

What was measured:
[1] = test system: CVB3-H3; experiment: Plaque reduction assay, CVB3-H3 in HeLa-RW cells; assay type: cell-based, coxsackievirus B3; details: compound added 30 min before infection, CVB3-H3 MOI 1, HeLa-RW, 6 hours; log10(titer with DMSO only/titer with inhibitor)
[2] = test system: eGFP-expressing recombinant CVB3; assay type: cell-based, coxsackievirus B3; details: for % of eGFP + cells, 0 Hr: compound added 0 hr post infection at its peak activity concentration, DMSO 26.0; for % of eGFP + cells, 0 Hr / % of eGFP + cells, 1 Hr / % of eGFP + cells, 2 Hr: read 6 hr post infection; for % of eGFP + cells, 1 Hr: compound added 1 hr post infection at its peak activity concentration, DMSO 23.7; for % of eGFP + cells, 2 Hr: compound added 2 hr post infection at its peak activity concentration, DMSO 24.8; for Inhibition of infected cells: eGFP-CVB3 m.o.i=1, compound added at time of infection, 6 hr post infection, 1-(% eGFP+ cells with compound/% with DMSO only)
[3] = test system: coxsackievirus B3 (CVB3); experiment: Cell viability assay, prevention of cell death caused by CVB3 infection; assay type: cell-based; details: for Selectivity index: 50% Cytotoxic concentration/50% activity concentration; for IC50 / EC (peak activity): Enterovirus B; for IC50: read-out: 50% activity concentration (IC50); for EC (peak activity): HeLa-RW cells and CVB3 at low multiplicity of infection, read-out: Peak Activity Conc.
Experimental: (§1) Procedure: Enteroviruses rapidly cause cell death, and a cell viability assay was used to examine the cytotoxicity of each compound and to identify the concentration needed to prevent cell death caused by coxsackievirus B3 (CVB3) infection.
(§2) Compounds were diluted two-fold and added to wells of 384 well plate. HeLa-RW cells were then added (cytotoxicity testing), or cells and CVB3 were added to provide a low multiplicity of infection to determine concentration of peak activity or 50% maximal concentration. Selectivity index is defined as the 50% Cytotoxic concentration/50% activity concentration

[4] = test system: viral capsid proteins of CVB3; experiment: Immunoblot detection of CVB3 viral capsid protein; assay type: cell-based, coxsackievirus B3; details: six hours after infection with CVB3; compound added 30 minutes before inoculation; 10 μM fluoxetine in FIG. 2
[5] = test system: HeLa-RW cells; assay type: cell-based; details: in words
Experimental: as §1, §2

[6] = test system: CVB3; experiment: Time of addition experiment, CVB3 in HeLa cells; assay type: cell-based, coxsackievirus B3
[7] = test system: coxsackievirus B3 (CVB3); experiment: Cell viability assay, prevention of cell death caused by CVB3 infection; assay type: cell-based; details: Enterovirus B, HeLa, read-out: 50% effective concentration (EC50), CVB3 replication
[8] = test system: poliovirus 1 (PV-1); assay type: cell-based; design: dose or concentration left out as unconfirmed; details: HeLa cells, MOI of 1, six hours (FIG. 6)
[9] = test system: poliovirus-3 (PV-3); assay type: cell-based; design: dose or concentration left out as unconfirmed; details: HeLa cells, MOI of 1, six hours (FIG. 6)

NCCC(Oc1ccc(C(F)(F)F)cc1)c1ccccc1 (stereo not shown) [Compound 74, 3-Phenyl-3-[4-(trifluoromethyl)phenoxy]-1-propanamine]
Log10 reduction of virus titer [1]: 4.7 | % of eGFP + cells, 0 Hr [2]: 0.0% | % of eGFP + cells, 1 Hr [2]: 0.0% | % of eGFP + cells, 2 Hr [2]: 0.0% | Inhibition of infected cells [2]: 100% | Selectivity index [3]: 10 | IC50 [3]: 2.53 µM | EC (peak activity) [3]: 6.25 µM | viral capsid protein detected by immunoblot [4]: no viral protein is detected

COc1ccc(C(=O)N2CCC(C(=O)c3ccc4c(c3)OCCO4)CC2)cc1F [Compound 45, 2,3-Dihydro-1,4-benzodioxin-6-yl [1-(3-fluoro-4-methoxybenzoyl)-4-piperidinyl] methanone]
Log10 reduction of virus titer [1]: 2.0 | % of eGFP + cells, 0 Hr [2]: 8.9% | % of eGFP + cells, 1 Hr [2]: 17.0% | % of eGFP + cells, 2 Hr [2]: 20.0% | Inhibition of infected cells [2]: 82.1% | cytotoxicity to HeLa cells [5]: minimally cytotoxic | Selectivity index [3]: 125 | IC50 [3]: 0.2 µM | EC (peak activity) [3]: 1.56 µM | CVB3 replication, compound added 1 hour or more after inoculation ([6]; added 1 hour or more after inoculation (FIG. 7)): less potent | CVB3 replication, compound added prior to inoculation ([6]; added prior to inoculation of cultures (FIG. 7)): markedly reduced | EC50 [7]: 0.2 µM

C/C(=C\c1ccccc1)C1NC(N)=Nc2nc3ccccc3n21 (stereo not shown) [Compound 68, 4-[(1E)-1-Phenyl-1-propen-2-yl)-1,4-dihydro[1,3,5] triazino[1,2-a]benzimidazol-2-amine]
Log10 reduction of virus titer [1]: 3.7 | % of eGFP + cells, 0 Hr [2]: 0.0% | % of eGFP + cells, 1 Hr [2]: 0.0% | % of eGFP + cells, 2 Hr [2]: 0.0% | Inhibition of infected cells [2]: 100% | Selectivity index [3]: 21 | IC50 [3]: 1.21 µM | EC (peak activity) [3]: 3.13 µM

COc1ccc(N(Cc2ccc(F)cc2)C(=O)c2ccco2)cc1 [Compound 57, N-(4-Fluorobenzyl)-N-(4-methoxyphenyl)-2-furamide]
Log10 reduction of virus titer [1]: 4.3 | % of eGFP + cells, 0 Hr [2]: 0.0% | % of eGFP + cells, 1 Hr [2]: 0.0% | % of eGFP + cells, 2 Hr [2]: 0.0% | Inhibition of infected cells [2]: 99.7% | Selectivity index [3]: 16 | IC50 [3]: 3.13 µM | EC (peak activity) [3]: 6.25 µM

N#Cc1ccc(OCc2nc3ccccc3n2-c2ccccc2)cc1 [Compound 42, 4-[(1-Phenyl-1H-benzimidazol-2-yl)methoxy) benzonitrile]
Log10 reduction of virus titer [1]: 4.5 | % of eGFP + cells, 0 Hr [2]: 0.0% | % of eGFP + cells, 1 Hr [2]: 0.1% | % of eGFP + cells, 2 Hr [2]: 0.0% | Inhibition of infected cells [2]: 100% | Selectivity index [3]: 8 | IC50 [3]: 3 µM | EC (peak activity) [3]: 6.25 µM

CC(C)n1ncc2c(C(=O)Nc3ccccc3F)cc(-c3cccs3)nc21 [Compound 3, N-(2-Fluorophenyl)-1-isopropyl-6-(2-thienyl)-1H-pyrazolo [3,4-b]pyridine-4-carboxamide]
Log10 reduction of virus titer [1]: 4.5 | % of eGFP + cells, 0 Hr [2]: 0.0% | % of eGFP + cells, 1 Hr [2]: 0.0% | % of eGFP + cells, 2 Hr [2]: 0.0% | Inhibition of infected cells [2]: 100% | Selectivity index [3]: 175 | IC50 [3]: 1.14 µM | EC (peak activity) [3]: 3.13 µM | titer of virus produced, PV-1 [8]: marked reduction | titer of virus produced, PV-3 [9]: marked reduction | activity when added 2 hours after infection begins ([6]; virus produced six hours after infection (FIG. 7)): equivalently active

Cc1ccccc1NC(=O)c1cc(-c2cccs2)nc2c1cnn2C(C)C [Compound 1, 1-Isopropyl-N-(2-methylphenyl)-6-(2-thienyl)-1H-pyrazolo [3,4-b]pyridine-4-carboxamide]
Log10 reduction of virus titer [1]: 4.4 | % of eGFP + cells, 0 Hr [2]: 0.0% | % of eGFP + cells, 1 Hr [2]: 0.0% | % of eGFP + cells, 2 Hr [2]: 0.0% | Inhibition of infected cells [2]: 100% | Selectivity index [3]: 42 | IC50 [3]: 0.6 µM | EC (peak activity) [3]: 1.56 µM
